In PubChem BioAssay (NCI):
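Growth conditions: 96-well plates. Treatment: test compound, 48 hours, 5 concentrations. Analysis: linear interpolation between bracketing concentrations; unreached endpoints set to highest concentration. Here, GI50 denotes the concentration required for 50% inhibition of growth. TGI marks complete inhibition of growth.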

What was measured:
Experiment in all cases: growth of human tumour cells (NCI), 48 h
[1] = system: M14 melanoma
[2] = system: MOLT-4 leukemia
[3] = system: SN12C renal
[4] = system: COLO 205 colon
[5] = system: HT29 colon
[6] = system: UACC-257 melanoma
[7] = system: IGROV1 ovarian
[8] = system: HCC-2998 colon
[9] = system: ACHN renal
[10] = system: RXF 393 renal
[11] = system: K-562 leukemia
[12] = system: HL-60(TB) leukemia
[13] = system: PC-3 prostate
[14] = system: OVCAR-8 ovarian
[15] = system: OVCAR-3 ovarian
[16] = system: SR leukemia
[17] = system: MDA-MB-435
[18] = system: SNB-19 CNS
[19] = system: CAKI-1 renal
[20] = system: MALME-3M melanoma
[21] = system: RPMI-8226 leukemia
[22] = system: HCT-116 colon
[23] = system: NCI-H23 lung
[24] = system: A498 renal
[25] = system: TK-10 renal
[26] = system: SF-295 CNS
[27] = system: NCI-H460 lung
[28] = system: SNB-75 CNS
[29] = system: SK-OV-3 ovarian
[30] = system: KM12 colon
[31] = system: UO-31 renal
[32] = system: MCF7 breast
[33] = system: NCI/ADR-RES ovarian
[34] = system: SF-539 CNS
[35] = system: OVCAR-5 ovarian
[36] = system: A549 NSCLC
[37] = system: HOP-62 NSCLC
[38] = system: T-47D breast
[39] = system: 786-0 renal
[40] = system: OVCAR-4 ovarian
[41] = system: MDA-MB-231 breast
[42] = system: NCI-H522 lung
[43] = system: UACC-62 melanoma
[44] = system: SF-268 CNS
[45] = system: NCI-H226 lung
[46] = system: SK-MEL-28 melanoma
[47] = system: CCRF-CEM leukemia
[48] = system: DU-145 prostate
[49] = system: SW-620 colon
[50] = system: HCT-15 colon
[51] = system: BT-549 breast
[52] = system: HS 578T breast
[53] = system: SK-MEL-5 melanoma
[54] = system: HOP-92 NSCLC
[55] = system: SK-MEL-2 melanoma
[56] = system: LOX IMVI melanoma
[57] = system: U251 CNS

O=C(Cc1ccc(OCc2ccccc2)cc1)NCc1ccc2c(c1)OCO2
GI50 [1]: 7.71 µM
TGI [1]: > 100 µM
GI50 [2]: > 100 µM
TGI [2]: > 100 µM
GI50 [3]: > 100 µM
TGI [3]: > 100 µM
GI50 [4]: 14.4 µM
TGI [4]: > 100 µM
GI50 [5]: 37.9 µM
TGI [5]: > 100 µM
GI50 [6]: > 100 µM
TGI [6]: > 100 µM
GI50 [7]: > 100 µM
TGI [7]: > 100 µM
GI50 [8]: > 100 µM
TGI [8]: > 100 µM
GI50 [9]: > 100 µM
TGI [9]: > 100 µM
GI50 [10]: 5.18 µM
TGI [10]: > 100 µM
GI50 [11]: 4.64 µM
TGI [11]: > 100 µM
GI50 [12]: 9.3 µM
TGI [12]: > 100 µM
GI50 [13]: > 100 µM
TGI [13]: > 100 µM
GI50 [14]: > 100 µM
TGI [14]: > 100 µM
GI50 [15]: > 100 µM
TGI [15]: > 100 µM
GI50 [16]: 5.23 µM
TGI [16]: > 100 µM
GI50 [17]: 2.32 µM
TGI [17]: 5.93 µM
GI50 [18]: 41.9 µM
TGI [18]: > 100 µM
GI50 [19]: > 100 µM
TGI [19]: > 100 µM
GI50 [20]: 29.2 µM
TGI [20]: > 100 µM
GI50 [21]: > 100 µM
TGI [21]: > 100 µM
GI50 [22]: 30.1 µM
TGI [22]: > 100 µM
GI50 [23]: > 100 µM
TGI [23]: > 100 µM
GI50 [24]: > 100 µM
TGI [24]: > 100 µM
GI50 [25]: > 100 µM
TGI [25]: > 100 µM
GI50 [26]: 64.4 µM
TGI [26]: > 100 µM
GI50 [27]: > 100 µM
TGI [27]: > 100 µM
GI50 [28]: 2.17 µM
TGI [28]: 6.53 µM
GI50 [29]: 8.18 µM
TGI [29]: > 100 µM
GI50 [30]: 10.8 µM
TGI [30]: > 100 µM
GI50 [31]: > 100 µM
TGI [31]: > 100 µM
GI50 [32]: 5.43 µM
TGI [32]: > 100 µM
GI50 [33]: 9.26 µM
TGI [33]: > 100 µM
GI50 [34]: 9.11 µM
TGI [34]: > 100 µM
GI50 [35]: > 100 µM
TGI [35]: > 100 µM
GI50 [36]: > 100 µM
TGI [36]: > 100 µM
GI50 [37]: 6.98 µM
TGI [37]: > 100 µM
GI50 [38]: 48.3 µM
TGI [38]: > 100 µM
GI50 [39]: 30.3 µM
TGI [39]: > 100 µM
GI50 [40]: > 100 µM
TGI [40]: > 100 µM
GI50 [41]: 59 µM
TGI [41]: > 100 µM
GI50 [42]: > 100 µM
TGI [42]: > 100 µM
GI50 [43]: 14.3 µM
TGI [43]: > 100 µM
GI50 [44]: 6.72 µM
TGI [44]: > 100 µM
GI50 [45]: > 100 µM
TGI [45]: > 100 µM
GI50 [46]: > 100 µM
TGI [46]: > 100 µM
GI50 [47]: > 100 µM
TGI [47]: > 100 µM
GI50 [48]: > 100 µM
TGI [48]: > 100 µM
GI50 [49]: 7.14 µM
TGI [49]: > 100 µM
GI50 [50]: 5.31 µM
TGI [50]: > 100 µM
GI50 [51]: > 100 µM
TGI [51]: > 100 µM
GI50 [52]: 9.82 µM
TGI [52]: > 100 µM
GI50 [53]: 70.7 µM
TGI [53]: > 100 µM

Nc1c(C(=O)c2cccc(-c3ccncc3)c2)cnn1-c1ccc(F)cc1
GI50 [1]: > 25 µM
TGI [1]: > 25 µM
GI50 [2]: > 25 µM
TGI [2]: > 25 µM
GI50 [54]: > 25 µM
TGI [54]: > 25 µM
GI50 [3]: > 25 µM
TGI [3]: > 25 µM
GI50 [4]: > 25 µM
TGI [4]: > 25 µM
GI50 [5]: > 25 µM
TGI [5]: > 25 µM
GI50 [6]: > 25 µM
TGI [6]: > 25 µM
GI50 [55]: > 25 µM
TGI [55]: > 25 µM
GI50 [7]: > 25 µM
TGI [7]: > 25 µM
GI50 [8]: > 25 µM
TGI [8]: > 25 µM
GI50 [9]: > 25 µM
TGI [9]: > 25 µM
GI50 [10]: > 25 µM
TGI [10]: > 25 µM
GI50 [11]: > 25 µM
TGI [11]: > 25 µM
GI50 [12]: > 5.67 µM
TGI [12]: > 25 µM
GI50 [13]: > 25 µM
TGI [13]: > 25 µM
GI50 [14]: > 25 µM
TGI [14]: > 25 µM
GI50 [15]: > 25 µM
TGI [15]: > 25 µM
GI50 [16]: > 25 µM
TGI [16]: > 25 µM
GI50 [17]: > 25 µM
TGI [17]: > 25 µM
GI50 [18]: > 25 µM
TGI [18]: > 25 µM
GI50 [19]: > 25 µM
TGI [19]: > 25 µM
GI50 [20]: > 25 µM
TGI [20]: > 25 µM
GI50 [21]: > 15.2 µM
TGI [21]: > 25 µM
GI50 [22]: > 25 µM
TGI [22]: > 25 µM
GI50 [23]: > 25 µM
TGI [23]: > 25 µM
GI50 [24]: > 25 µM
TGI [24]: > 25 µM
GI50 [25]: > 25 µM
TGI [25]: > 25 µM
GI50 [26]: > 25 µM
TGI [26]: > 25 µM
GI50 [27]: > 25 µM
TGI [27]: > 25 µM
GI50 [28]: > 25 µM
TGI [28]: > 25 µM
GI50 [29]: > 25 µM
TGI [29]: > 25 µM
GI50 [30]: > 25 µM
TGI [30]: > 25 µM
GI50 [31]: > 25 µM
TGI [31]: > 25 µM
GI50 [32]: > 25 µM
TGI [32]: > 25 µM
GI50 [33]: > 25 µM
TGI [33]: > 25 µM
GI50 [34]: > 25 µM
TGI [34]: > 25 µM
GI50 [35]: > 25 µM
TGI [35]: > 25 µM
GI50 [36]: > 25 µM
TGI [36]: > 25 µM
GI50 [37]: > 23.3 µM
TGI [37]: > 25 µM
GI50 [38]: 9.94 µM
TGI [38]: > 25 µM
GI50 [39]: > 25 µM
TGI [39]: > 25 µM
GI50 [40]: > 25 µM
TGI [40]: > 25 µM
GI50 [41]: > 25 µM
TGI [41]: > 25 µM
GI50 [42]: 15.4 µM
TGI [42]: > 25 µM
GI50 [56]: > 25 µM
TGI [56]: > 25 µM
GI50 [43]: > 25 µM
TGI [43]: > 25 µM
GI50 [44]: > 25 µM
TGI [44]: > 25 µM
GI50 [45]: > 25 µM
TGI [45]: > 25 µM
GI50 [46]: > 25 µM
TGI [46]: > 25 µM
GI50 [57]: > 25 µM
TGI [57]: > 25 µM
GI50 [47]: > 25 µM
TGI [47]: > 25 µM
GI50 [48]: > 25 µM
TGI [48]: > 25 µM
GI50 [49]: > 25 µM
TGI [49]: > 25 µM
GI50 [50]: > 25 µM
TGI [50]: > 25 µM
GI50 [51]: > 25 µM
TGI [51]: > 25 µM
GI50 [52]: > 25 µM
TGI [52]: > 25 µM
GI50 [53]: 5.69 µM
TGI [53]: > 25 µM
